Like-named read-outs stand apart in the source and are kept apart here.
Columns and labels:
[1] = tested on: HIV-1AT; assay: HIV-1 infection of PBMC, p24-core antigen ELISA; format: cell-based; settings: Human immunodeficiency virus 1, 168 h; PBMC infected with HIV-1AT, p24 antigen after 7 days
Protocol: (§1) To correct for the input virus, an extra control consisting of medium containing the same amount of input virus as added to the cells was included in the experiment. The amount of p24 in this control was subsequently subtracted from the p24 values of the samples in order to obtain the exact amount of p24 produced by the cells. p24-core antigen quantification by ELISA After 2 or 7 days incubation, samples of the supernatants were collected, inactivated by addition of Empigen (Calbiochem, La Jolla, CA, USA) and by heat inactivation at 56°C for 30 min. p24-core antigen concentration was determined by an enzyme linked immunoabsorbent assay (ELISA) (AMPAK™, DAKO, Cambridgeshire, UK) as described previously ^18,19. The optical density values were converted into p24 concentration (ng/ml) with the use of a calibration curve made by serial dilutions of recombinant p24 protein (NIBSC, UK) that was submitted to the same treatment as the samples.

[2] = tested on: HIV-1HXB2; assay: HIV-1 infection of PBMC, p24-core antigen ELISA; format: cell-based; settings: Human immunodeficiency virus 1, 168 h; PBMC infected with HIV-1HXB2, p24 antigen after 7 days
Protocol: as §1

[3] = tested on: chronically HIV-1-infected U1 cell line; assay: Infection model with the chronically HIV-1-infected monocytic cell line U1, p24 ELISA; format: cell-based; settings: PMA (100 ng/ml) stimulated, APHS 3, 10 and 30 µM, 2 days
Protocol: U1 cells (AIDS Reagents, Rockville, […]) were incubated with 100 ng/ml phorbol myristate acetate (PMA; Sigma) or with medium (negative control) for 30 min. Afterwards the cells were washed and seeded in a concentration of 1 × 10^6 cells/ml in RPMI 1640 medium containing 10% FCS and 10 µg/ml gentamycin either with increasing concentrations of APHS or with 30 mM N-acetyl-L-cysteine (NAC; Sigma), which served as a positive control. After 2 days of incubation, samples of the supernatant were collected, inactivated by addition of Empigen and by 30 min incubation at 56°C. The concentration of p24 was determined by ELISA (AMPAK™) as described above.

[4] = tested on: HIV-1HXB2; assay: Reverse transcription assay in PBMC: (-) strong stop and gag DNA by real-time Taqman PCR; format: cell-based; settings: 10h after infection
Protocol: PBMC infection with HIV-1Ba-L or HIV-1HXB2 for real-time Taqman PCR The ability of HIV-1Ba-L to enter the cells in the presence of APHS was tested using DS as positive control (entry assay). The amount of HIV-1HXB2 reverse transcription products in the presence of APHS was also tested, using AZT as positive control (reverse transcription assay). Before infection, PHA-stimulated PBMC from the PBMC batch were pre-incubated with different concentrations of APHS, DS or AZT for 24 h. Afterwards, cells were washed and 1 × 10^6 PBMC were incubated for 40 min with HIV-1Ba-L or HIV-1HXB2 at an M.O.I. of 0.0025 and with appropriate concentrations of APHS, AZT, DS or medium in the presence of 1/20 concentrated M buffer (Roche) and 4U/ml DNase (Roche) to digest possible contaminating viral DNA associated with the virions. Afterwards PBMC were washed and resuspended in medium with or without compounds. Cells were treated with 1 mg/ml Pronase (Roche) to remove virus particles bound to the cells. […] At different time points, 1.0 × 10^6 cells were added to 900 µl Nuclisens lysis buffer (Organon Teknika, Boxtel, The Netherlands) containing 40 µl silica to bind total nucleic acids (Nuclisens isolation kit). For the entry assay, samples were collected 2h after the start of the infection and for the reverse transcription assays samples were collected 2, 7 and 10h after the start of the infection.
HIV RNA and DNA were extracted from samples of infected cells according to a method described before ^23. Briefly, after 10 min of mixing the silica and lysis buffer, tubes were shortly centrifuged at 13,000 rpm and supernatant was discarded. Free non-nucleic acid components were removed by washing the silica particles twice with Nuclisens washing buffer, twice with 70 % ethanol and once with acetone. The silica pellet was dried for 10 min at 56 °C. Total nucleic acids were eluted by resuspending the pellet in 100 µl nuclease-free water. After mixing the tubes for 10 min at 56 °C, tubes were shortly centrifuged and the supernatant was transferred to a new tube and stored at -20 °C.
Real-time Taqman PCR is based on cleavage of a probe, hybridized to the target sequence by 5'-3' nuclease activity of Taq DNA polymerase during amplification, as described previously ^24. Briefly, target sequence-specific forward and reverse primers prime the amplification reaction. The probe contains a reporter dye at the 5' end and a quencher dye at the 3' end. When both dyes are attached to the probe, reporter dye emission is quenched. The probe is displaced from the target during each polymeration cycle. Once separated from the quencher, the reporter dye emits its characteristic fluorescence, which can then be measured. The amount of fluorescence measured is proportional to the amount of PCR product.
HIV-1 gag cDNA and HIV-1 (-) strong stop and gag DNA were amplified and quantified by real-time Taqman PCR as described elsewhere ^25. Sets of primers/probes were designed according to a previous study by Zack and colleagues ^26. To quantify the amount of gag RNA in the samples, a cDNA standard curve was prepared from five-fold dilutions of extracted RNA from an HXB2 viral batch, of which the RNA amount was previously determined. To quantify (-) strong stop and gag DNA in the samples, a DNA standard curve was prepared from five-fold dilutions of DNA extracted from U1 cells, which contain two copies of the HIV-1HXB2 genome per cell. Albumin was also quantified and used for normalization of all samples.

[5] = tested on: CrFK cells; assay: Cellular viability assay (MTT) of CrFK cells; format: cell-based, feline
[6] = concentrations of APHS up to 100 mg/kg; cited from earlier work
[7] = tested on: HXB2; assay: Drug susceptibility assay (cell-killing MTT assay) in MT-2 cells; settings: Human immunodeficiency virus 1, HXB2, MT2, 120 h
Protocol: The cells were maintained at 37°C, 5% CO2. One day prior to the experiments, the cells were passaged 1:1 in a concentration of 1 × 10^6 cells/ml.
The genes that contain the drug resistance mutations are excised from the clinical isolates and cloned into the genetic background of HXB2. Thus all tested HIV-1 strains have the same genetic background. […] This strain contains an insertion of two a.a. between codons 68 and 69 of RT as well as an a.a. change at codon 67.
After 5 days of incubation a cellular viability assay was performed as described above. In this case, the amount of formazan reflects the number of cells protected by the drug against killing by the virus and is used as a read out for drug susceptibility.

[8] = tested on: HIV-1Ba-L; assay: Combination of HIV-1 inhibitors in HIV-1Ba-L infected PBMC (checker board, CalcuSyn); settings: Human immunodeficiency virus 1, PBMC
Protocol: After 7 days incubation, samples of the supernatants were collected, inactivated by addition of Empigen (Calbiochem, La Jolla, CA, USA) and by heat inactivation at 56°C for 30 min. p24-core antigen concentration was determined by an ELISA (AMPAK™, DAKO, Cambridgeshire, UK) as described previously ^39,40. The optical density values were converted into p24 concentration (ng/ml) with the use of a calibration curve made by serial dilutions of recombinant p24 protein (NIBSC, UK) that was submitted to the same treatment as the samples.
After 7 days of incubation, p24 antigen in culture supernatant was quantified by ELISA and cellular viability was assessed by a cytotoxicity assay. fa was calculated for each drug combination after p24 quantification. Using the CalcuSyn program, dose-effect curves were plotted for each drug combination, i.e., each dose was plotted against the corresponding fa value. […] CI values were calculated using the mutually nonexclusive assumption.

With CCCCC#CCSc1ccccc1OC(C)=O [APHS, o-(acetoxyphenyl)hept-2-ynyl sulfide] the IC50 [1] was 7 µM, the IC50 [2] was 11 µM and the “HIV-1 production (p24) by U1 cells” value [3] was “not capable of inhibiting HIV-1 production”. For the same compound, the “gag cDNA levels versus untreated PBMC” value ([4]; 10 µM APHS) was “no significant differences”, the “(-) strong stop DNA copy numbers versus untreated PBMC” value ([4]; 10 or 30 µM APHS, 5 or 1000 nM AZT) was “did not show a significant decrease” and the inhibition at 30 µM ([4]; Human immunodeficiency virus 1, 30 µM APHS, PBMC, read-out: inhibited gag production) was 60%. For the same compound, the “cytotoxicity for CrFK cells” value [5] was “not cytotoxic”, the “toxicity in the rat air pouch model” value [6] was “no toxicity” and the IC50 [7] was 10 µM. For the same compound, the IC50 ([8]; 168 h, read-out: IC50 Alone APHS, APHS alone, PBMC, HIV-1Ba-L, 7 days, one value per experiment with the named partner drug) was 10 to 15 µM, the IC50 ([8]; read-out: IC50 of APHS alone (mean), mean over the combination experiments) was 13 µM and the IC50 ([8]; read-out: IC50 of APHS in combination with RTI or PI (mean), mean over the combination experiments) was 5 µM.

Source: EP1452605A1, “Method for determining antiviral activity” (Universiteit Utrecht Holding B.V., priority 2003, dated 2004)
